Laboratory results taken from ChEMBL document CHEMBL1144677, “Novel quinazolinone derivatives as 5-HT7 receptor ligands” (Bioorg Med Chem, 2008).

Columns and labels:
D(2) dopamine receptor = D(2) dopamine receptor (Homo sapiens, UniProt P14416)
Description: Binding affinity at dopamine D2 receptor

[1] = target: T1, 5-hydroxytryptamine receptor 1A (Homo sapiens, UniProt P08908)
T1 sequence (P08908 whole entry): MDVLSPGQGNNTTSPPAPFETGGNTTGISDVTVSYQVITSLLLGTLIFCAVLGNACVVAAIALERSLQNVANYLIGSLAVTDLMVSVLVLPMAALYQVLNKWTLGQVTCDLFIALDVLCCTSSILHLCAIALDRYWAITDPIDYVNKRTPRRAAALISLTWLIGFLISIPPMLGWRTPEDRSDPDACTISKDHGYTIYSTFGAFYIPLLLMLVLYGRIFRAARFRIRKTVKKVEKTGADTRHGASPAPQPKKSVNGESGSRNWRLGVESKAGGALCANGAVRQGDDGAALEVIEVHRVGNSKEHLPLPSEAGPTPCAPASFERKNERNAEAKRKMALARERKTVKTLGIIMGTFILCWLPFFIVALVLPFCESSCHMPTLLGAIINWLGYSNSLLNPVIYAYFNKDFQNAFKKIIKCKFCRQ
Description: Binding affinity at 5HT1A receptor

[2] = target: 5-hydroxytryptamine receptor 2A (Homo sapiens, UniProt P28223)
5-hydroxytryptamine receptor 2A, sequence (P28223 whole entry): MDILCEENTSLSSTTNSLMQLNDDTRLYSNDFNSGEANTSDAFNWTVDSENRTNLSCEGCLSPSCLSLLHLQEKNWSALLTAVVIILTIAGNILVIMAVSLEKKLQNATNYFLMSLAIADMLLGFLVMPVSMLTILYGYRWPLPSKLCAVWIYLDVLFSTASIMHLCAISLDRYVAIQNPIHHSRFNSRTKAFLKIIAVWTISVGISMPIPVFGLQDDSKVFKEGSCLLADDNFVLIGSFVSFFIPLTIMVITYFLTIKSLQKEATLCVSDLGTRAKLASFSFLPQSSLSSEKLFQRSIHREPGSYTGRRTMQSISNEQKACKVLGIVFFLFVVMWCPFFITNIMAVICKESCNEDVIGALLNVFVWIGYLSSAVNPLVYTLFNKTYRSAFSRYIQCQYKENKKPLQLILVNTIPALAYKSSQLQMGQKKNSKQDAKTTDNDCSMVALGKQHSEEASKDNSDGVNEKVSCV
Description: Binding affinity at 5HT2A receptor

[3] = target: T2, 5-hydroxytryptamine receptor 2C (Homo sapiens, UniProt P28335)
T2 sequence (P28335 whole entry): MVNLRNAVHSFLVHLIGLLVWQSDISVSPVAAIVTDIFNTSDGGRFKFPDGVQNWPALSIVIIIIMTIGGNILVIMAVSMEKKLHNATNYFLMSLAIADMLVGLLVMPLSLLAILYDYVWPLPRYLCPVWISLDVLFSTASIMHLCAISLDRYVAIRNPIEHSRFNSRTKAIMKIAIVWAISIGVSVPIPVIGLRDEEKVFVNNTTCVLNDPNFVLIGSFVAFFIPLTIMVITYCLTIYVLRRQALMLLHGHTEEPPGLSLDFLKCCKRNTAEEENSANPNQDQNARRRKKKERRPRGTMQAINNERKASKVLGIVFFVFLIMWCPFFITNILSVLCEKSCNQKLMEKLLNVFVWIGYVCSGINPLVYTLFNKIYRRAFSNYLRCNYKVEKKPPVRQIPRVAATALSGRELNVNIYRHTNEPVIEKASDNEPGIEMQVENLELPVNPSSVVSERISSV
Description: Binding affinity at 5HT2C receptor

D(2) dopamine receptor, sequence (P14416 whole entry): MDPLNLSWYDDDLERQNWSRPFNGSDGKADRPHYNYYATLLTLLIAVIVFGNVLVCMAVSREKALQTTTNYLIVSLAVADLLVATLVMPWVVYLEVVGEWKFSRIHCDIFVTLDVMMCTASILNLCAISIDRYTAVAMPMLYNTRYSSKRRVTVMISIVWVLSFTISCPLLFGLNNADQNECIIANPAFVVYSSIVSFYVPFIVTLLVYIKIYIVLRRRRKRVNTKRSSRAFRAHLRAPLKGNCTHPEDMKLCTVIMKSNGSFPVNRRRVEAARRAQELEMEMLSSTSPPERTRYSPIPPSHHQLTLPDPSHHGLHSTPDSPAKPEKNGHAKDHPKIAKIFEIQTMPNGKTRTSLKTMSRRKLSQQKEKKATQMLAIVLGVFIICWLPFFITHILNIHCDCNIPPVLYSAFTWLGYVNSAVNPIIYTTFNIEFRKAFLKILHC

Row | SMILES | IC50 (D(2) dopamine receptor) [µM] | IC50 [1] [nM] | IC50 [2] [nM] | IC50 [3] [nM]
1 | Cc1cccc(N2CCN(CCCC(=O)NCc3nc4ccccc4c(=O)n3-c3ccccc3)CC2)c1C | 6.9 | 500 | 1100 | –
2 | COc1ccccc1N1CCN(CCCC(=O)NCc2nc3ccc(F)cc3c(=O)n2-c2ccccc2)CC1 | 5.3 | 960 | > 10000 | 220
3 | O=C(CCCN1CCN(c2cccc(C(F)(F)F)c2)CC1)NCc1nc2cc(F)ccc2c(=O)n1-c1ccccc1 | 6.6 | 140 | 620 | 1300

Compounds with a lower IC50 (D(2) dopamine receptor), results first:

Row | IC50 (D(2) dopamine receptor) [µM] | IC50 [1] [nM] | IC50 [2] [nM] | IC50 [3] [nM] | SMILES
4 | 1 | 500 | > 10000 | 1600 | CCOc1ccccc1N1CCN(CCCC(=O)NCc2nc3ccc(F)cc3c(=O)n2-c2ccccc2)CC1
5 | 4 | 220 | 420 | 80 | Cc1cccc(N2CCN(CCCC(=O)NCc3nc4ccc(F)cc4c(=O)n3-c3ccccc3)CC2)c1C
